Experimental data as given in patent US20220175728A1, “PHARMACEUTICAL USE OF CHLOROPHYLLIDE FOR ANTI-VIRAL INFECTION” (I-SHOU UNIVERSITY, priority 2020, published 2022).

Tests used:
Format in all cases: cell-based
chikungunya virus = experiment: Chikungunya micro-neutralization test; settings: Vero cells, MOI 0.001, 3 days
Experimental: (§1) African green monkey kidney Vero cells were infected with chikungunya virus at an MOI of 0.001 in the presence of chlorophyllide at indicated dosages, and then incubated for 3 days, followed by the micro-neutralization test.

[1] = system: African green monkey kidney Vero cells; experiment: Cytotoxicity, control group of chikungunya micro-neutralization test; settings: 3 days
Experimental: as §1

Zika virus = experiment: Zika micro-neutralization test; settings: Vero cells, MOI 0.1, 4 to 5 days
Experimental: (§2) African green monkey kidney Vero cells were infected with Zika virus at an MOI of 0.1 in the presence of chlorophyllide at indicated dosages, and then incubated for 4 to 5 days, followed by the micro-neutralization test.

[2] = system: African green monkey kidney Vero cells; experiment: Cytotoxicity, control group of Zika micro-neutralization test; settings: 4 to 5 days
Experimental: as §2

chlorophyllide
EC50 for antiviral activity against chikungunya (chikungunya virus): 18.75 µg/mL | cytotoxicity dose [1]: greater than 100 μg/mL | EC50 for antiviral activity against Zika (Zika virus): 12.5 µg/mL | cytotoxicity dose [2]: greater than 100 μg/mL
